Source: ChEMBL document CHEMBL5360622, “Leucettinibs, a Class of DYRK/CLK Kinase Inhibitors Inspired by the Marine Sponge Natural Product Leucettamine B” (J Med Chem, 2023)

Assays:
[1] = biological target: Casein kinase I isoform epsilon (Homo sapiens, UniProt P49674)
[2] = biological target: Cyclin-dependent kinase 5/CDK5 activator 1 (Homo sapiens, UniProt Q00535); assay type: cell-based, Sf9
[3] = biological target: Dual specificity protein kinase CLK2 (Homo sapiens, UniProt P49760)
[4] = biological target: Dual specificity protein kinase CLK3 (Homo sapiens, UniProt P49761); assay type: cell-based, Sf9
Dual specificity protein kinase CLK3, sequence (P49761 whole entry): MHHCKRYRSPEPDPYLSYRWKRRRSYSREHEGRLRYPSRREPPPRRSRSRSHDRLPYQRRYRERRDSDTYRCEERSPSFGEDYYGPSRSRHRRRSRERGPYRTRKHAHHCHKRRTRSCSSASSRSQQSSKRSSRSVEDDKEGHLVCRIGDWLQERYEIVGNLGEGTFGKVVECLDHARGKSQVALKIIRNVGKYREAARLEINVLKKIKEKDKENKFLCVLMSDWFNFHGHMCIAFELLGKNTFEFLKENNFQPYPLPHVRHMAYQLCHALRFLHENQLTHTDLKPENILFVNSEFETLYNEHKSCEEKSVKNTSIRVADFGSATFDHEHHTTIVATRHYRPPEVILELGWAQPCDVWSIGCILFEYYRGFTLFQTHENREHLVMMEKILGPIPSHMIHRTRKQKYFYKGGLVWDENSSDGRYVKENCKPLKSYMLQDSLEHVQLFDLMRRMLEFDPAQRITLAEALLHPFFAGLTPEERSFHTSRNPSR

[5] = biological target: Dual specificity protein kinase CLK4 (Homo sapiens, UniProt Q9HAZ1)
Dual specificity protein kinase CLK4, sequence (Q9HAZ1 whole entry): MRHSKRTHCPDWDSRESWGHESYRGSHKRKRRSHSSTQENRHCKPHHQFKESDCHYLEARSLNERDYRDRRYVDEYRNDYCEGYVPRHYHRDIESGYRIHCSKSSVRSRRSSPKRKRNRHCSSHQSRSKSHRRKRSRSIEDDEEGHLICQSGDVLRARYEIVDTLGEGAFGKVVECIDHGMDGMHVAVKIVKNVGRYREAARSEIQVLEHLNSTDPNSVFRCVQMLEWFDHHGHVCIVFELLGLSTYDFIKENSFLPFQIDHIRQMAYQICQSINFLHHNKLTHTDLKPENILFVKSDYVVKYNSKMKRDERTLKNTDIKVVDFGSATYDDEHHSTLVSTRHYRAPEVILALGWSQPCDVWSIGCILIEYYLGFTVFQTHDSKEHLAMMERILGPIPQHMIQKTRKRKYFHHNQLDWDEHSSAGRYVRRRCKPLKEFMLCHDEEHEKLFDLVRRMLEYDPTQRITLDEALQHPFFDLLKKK

[6] = biological target: T1, Dual specificity tyrosine-phosphorylation-regulated kinase 2 (Homo sapiens, UniProt Q92630)
T1 sequence (Q92630 whole entry): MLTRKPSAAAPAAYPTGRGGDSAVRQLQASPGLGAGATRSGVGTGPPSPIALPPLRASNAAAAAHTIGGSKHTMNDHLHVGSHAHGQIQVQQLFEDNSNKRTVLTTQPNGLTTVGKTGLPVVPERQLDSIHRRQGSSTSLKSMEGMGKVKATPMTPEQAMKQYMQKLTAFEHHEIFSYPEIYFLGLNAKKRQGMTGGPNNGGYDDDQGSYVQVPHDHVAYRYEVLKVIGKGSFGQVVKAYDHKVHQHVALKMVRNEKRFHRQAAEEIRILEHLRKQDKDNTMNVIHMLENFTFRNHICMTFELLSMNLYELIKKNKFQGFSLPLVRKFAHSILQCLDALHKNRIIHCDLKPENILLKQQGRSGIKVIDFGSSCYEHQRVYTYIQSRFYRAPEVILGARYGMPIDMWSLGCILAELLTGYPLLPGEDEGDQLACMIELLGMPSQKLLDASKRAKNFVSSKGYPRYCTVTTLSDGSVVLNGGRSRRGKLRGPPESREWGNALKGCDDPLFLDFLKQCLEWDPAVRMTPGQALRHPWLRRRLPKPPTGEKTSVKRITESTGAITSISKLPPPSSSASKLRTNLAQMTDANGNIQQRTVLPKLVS

[7] = biological target: T2, Dual specificity tyrosine-phosphorylation-regulated kinase 4 (Homo sapiens, UniProt Q9NR20)
T2 sequence (Q9NR20 whole entry): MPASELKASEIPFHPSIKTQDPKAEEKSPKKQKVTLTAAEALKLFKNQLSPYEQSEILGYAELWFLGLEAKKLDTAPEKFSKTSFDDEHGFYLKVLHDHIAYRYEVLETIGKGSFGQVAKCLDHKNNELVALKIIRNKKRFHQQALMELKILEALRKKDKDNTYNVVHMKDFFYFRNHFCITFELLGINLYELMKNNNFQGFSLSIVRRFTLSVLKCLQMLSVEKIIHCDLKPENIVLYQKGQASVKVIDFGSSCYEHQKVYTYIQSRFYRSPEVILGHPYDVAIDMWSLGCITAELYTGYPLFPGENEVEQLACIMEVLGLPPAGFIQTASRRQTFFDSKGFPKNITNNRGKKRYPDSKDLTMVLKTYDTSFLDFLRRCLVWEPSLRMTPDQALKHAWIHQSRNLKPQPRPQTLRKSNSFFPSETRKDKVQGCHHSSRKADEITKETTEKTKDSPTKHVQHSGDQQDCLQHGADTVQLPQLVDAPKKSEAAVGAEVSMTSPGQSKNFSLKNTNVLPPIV

[8] = biological target: Glycogen synthase kinase-3 beta (Homo sapiens, UniProt P49841); assay type: cell-based, Sf9
Glycogen synthase kinase-3 beta, sequence (P49841 whole entry): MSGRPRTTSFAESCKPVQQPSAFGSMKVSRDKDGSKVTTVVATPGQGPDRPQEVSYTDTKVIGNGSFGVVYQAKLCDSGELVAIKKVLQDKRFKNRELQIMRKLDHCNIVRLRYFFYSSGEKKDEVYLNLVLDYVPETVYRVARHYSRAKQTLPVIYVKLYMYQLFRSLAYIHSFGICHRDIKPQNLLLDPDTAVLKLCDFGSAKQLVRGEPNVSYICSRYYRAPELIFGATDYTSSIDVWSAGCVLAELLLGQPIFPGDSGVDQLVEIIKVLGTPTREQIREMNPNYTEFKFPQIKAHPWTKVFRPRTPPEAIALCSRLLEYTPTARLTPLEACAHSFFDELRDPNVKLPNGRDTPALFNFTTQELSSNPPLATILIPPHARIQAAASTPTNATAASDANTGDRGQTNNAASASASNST

[9] = biological target: T3, Dual specificity tyrosine-phosphorylation-regulated kinase 3 (Homo sapiens, UniProt O43781)
T3 sequence (O43781 whole entry): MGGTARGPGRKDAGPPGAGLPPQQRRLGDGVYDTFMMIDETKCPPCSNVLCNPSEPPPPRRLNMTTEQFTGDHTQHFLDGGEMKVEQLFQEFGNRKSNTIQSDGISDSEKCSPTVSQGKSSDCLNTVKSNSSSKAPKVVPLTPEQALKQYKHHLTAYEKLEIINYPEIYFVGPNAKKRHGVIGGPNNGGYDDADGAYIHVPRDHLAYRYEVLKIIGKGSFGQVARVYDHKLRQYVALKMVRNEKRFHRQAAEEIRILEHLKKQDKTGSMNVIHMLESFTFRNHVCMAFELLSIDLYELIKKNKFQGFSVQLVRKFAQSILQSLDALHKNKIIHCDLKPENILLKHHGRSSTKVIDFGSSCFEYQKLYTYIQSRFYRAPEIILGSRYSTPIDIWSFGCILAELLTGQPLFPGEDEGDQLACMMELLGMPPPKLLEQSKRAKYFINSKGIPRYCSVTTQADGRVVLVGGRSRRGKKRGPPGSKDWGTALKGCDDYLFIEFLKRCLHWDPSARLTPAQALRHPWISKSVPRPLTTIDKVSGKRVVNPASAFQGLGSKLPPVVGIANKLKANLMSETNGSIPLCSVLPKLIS

Casein kinase I isoform epsilon, sequence (P49674 whole entry, canonical isoform): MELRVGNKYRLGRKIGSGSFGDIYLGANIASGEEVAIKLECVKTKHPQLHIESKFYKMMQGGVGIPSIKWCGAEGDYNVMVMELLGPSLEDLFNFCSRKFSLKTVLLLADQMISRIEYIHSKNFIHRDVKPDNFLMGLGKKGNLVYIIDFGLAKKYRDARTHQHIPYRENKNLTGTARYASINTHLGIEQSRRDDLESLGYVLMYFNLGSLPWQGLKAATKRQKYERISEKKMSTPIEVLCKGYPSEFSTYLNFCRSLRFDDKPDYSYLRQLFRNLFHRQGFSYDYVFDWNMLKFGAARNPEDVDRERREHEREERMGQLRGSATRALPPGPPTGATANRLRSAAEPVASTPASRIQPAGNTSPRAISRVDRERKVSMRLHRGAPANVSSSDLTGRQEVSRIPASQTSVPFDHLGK
Dual specificity protein kinase CLK2, sequence (P49760 whole entry): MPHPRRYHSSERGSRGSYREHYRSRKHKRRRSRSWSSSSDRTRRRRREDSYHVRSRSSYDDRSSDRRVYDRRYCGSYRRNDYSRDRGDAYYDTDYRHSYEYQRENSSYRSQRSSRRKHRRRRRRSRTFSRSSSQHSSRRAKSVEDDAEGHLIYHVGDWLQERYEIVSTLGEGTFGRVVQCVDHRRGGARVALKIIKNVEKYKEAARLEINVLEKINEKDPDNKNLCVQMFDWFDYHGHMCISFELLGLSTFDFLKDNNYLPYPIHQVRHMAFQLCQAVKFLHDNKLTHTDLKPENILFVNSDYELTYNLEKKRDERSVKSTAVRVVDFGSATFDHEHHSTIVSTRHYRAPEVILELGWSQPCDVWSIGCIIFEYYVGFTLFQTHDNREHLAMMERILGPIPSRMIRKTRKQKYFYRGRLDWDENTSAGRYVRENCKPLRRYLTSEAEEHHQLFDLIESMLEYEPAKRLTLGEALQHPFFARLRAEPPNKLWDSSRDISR
Cyclin-dependent kinase 5/CDK5 activator 1, sequence (Q00535 whole entry): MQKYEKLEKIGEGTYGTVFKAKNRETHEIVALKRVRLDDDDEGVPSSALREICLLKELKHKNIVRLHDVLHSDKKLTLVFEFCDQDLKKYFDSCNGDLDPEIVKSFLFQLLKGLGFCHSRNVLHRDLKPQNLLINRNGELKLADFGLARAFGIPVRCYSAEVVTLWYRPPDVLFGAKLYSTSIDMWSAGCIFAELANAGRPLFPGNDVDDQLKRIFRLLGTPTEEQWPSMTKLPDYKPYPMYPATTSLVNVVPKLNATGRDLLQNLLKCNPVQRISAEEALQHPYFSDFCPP
Cyclin-dependent kinase 5/CDK5 activator 1, sequence (Q15078 whole entry, further chain): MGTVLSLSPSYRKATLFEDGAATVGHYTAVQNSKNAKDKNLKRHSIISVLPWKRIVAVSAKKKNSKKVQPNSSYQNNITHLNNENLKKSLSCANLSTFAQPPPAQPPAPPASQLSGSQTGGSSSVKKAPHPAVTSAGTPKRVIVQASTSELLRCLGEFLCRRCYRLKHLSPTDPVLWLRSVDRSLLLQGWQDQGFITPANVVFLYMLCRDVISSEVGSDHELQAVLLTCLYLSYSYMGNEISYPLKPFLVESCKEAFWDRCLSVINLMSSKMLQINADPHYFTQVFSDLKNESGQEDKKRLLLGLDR

Compound	IC50 [1] [nM]	IC50 [2] [nM]	IC50 [3] [nM]	IC50 [4] [nM]	IC50 [5] [nM]	IC50 [6] [nM]	IC50 [7] [nM]	IC50 [8] [nM]	IC50 [9] [nM]
O=C1NC(NCCc2ccccn2)=N/C1=C\c1ccc2ncsc2c1	> 10000	> 10000	349	697	34	1350	2150	3710	–
O=C1NC(NCc2nc3ccccc3s2)=N/C1=C\c1ccc2ncsc2c1	> 10000	> 10000	–	7010	71	> 10000	> 10000	9030	> 10000
CO[C@H]1CC[C@H](NC2=N/C(=C\c3ccc4ncsc4c3)C(=O)N2)CC1	> 10000	> 10000	–	880	24	2300	2600	13000	1900
O=C1NC(N[C@@H]2c3ccccc3C[C@H]2O)=N/C1=C\c1ccc2ncsc2c1	> 10000	> 10000	–	2040	11	390	180	> 10000	–
Cc1nc2ccc(/C=C3\N=C(NC4CCCCC4)NC3=O)cc2s1	> 10000	> 10000	–	5040	351	4710	> 10000	> 10000	–
CN1CCC2(CC1)CC(NC1=N/C(=C\c3ccc4ncsc4c3)C(=O)N1)C2	> 10000	> 10000	851	7460	107	4470	–	> 10000	403
O=C1NC(N[C@@H](CO)Cc2ccccc2)=N/C1=C\c1ccc2ncsc2c1	> 10000	> 10000	90	295	14	886	1150	2740	–
CO[C@@H]1Cc2ccccc2[C@H]1NC1=N/C(=C\c2ccc3ncsc3c2)C(=O)N1 (racemic)	> 10000	> 10000	50	848	14	235	–	1270	741
CO[C@H]1Cc2ccccc2[C@H]1NC1=N/C(=C\c2ccc3ncsc3c2)C(=O)N1 (racemic)	> 10000	> 10000	3480	> 10000	100	5170	–	> 10000	> 10000
COC(=O)C1(NC2=N/C(=C\c3ccc4ncsc4c3)C(=O)N2)C2CC3CC(C2)CC1C3 (stereo unspecified)	> 10000	3290	531	167	161	702	1740	659	–
Cc1ccc(NC2=N/C(=C\c3ccc4ncsc4c3)C(=O)N2)cc1F	> 10000	> 10000	3520	> 10000	71	6530	–	> 10000	3060
CN1CCC(NC2=N/C(=C\c3ccc4ncsc4c3)C(=O)N2)C1=O (racemic)	> 10000	> 10000	–	2700	12	2810	4890	> 10000	2320
O=C1NC(N[C@@H](CO)CC2CCCCC2)=N/C1=C\c1ccc2ncsc2c1	> 10000	> 10000	100	4390	26	–	3120	3310	–
CN1CCC(NC2=N/C(=C\c3ccc4ncsc4c3)C(=O)N2)CC1	> 10000	> 10000	–	3860	78	7830	> 10000	> 10000	647
O=C1NC(N[C@@H]2CN3CCC2CC3)=N/C1=C\c1ccc2ncsc2c1	–	> 10000	1170	4350	169	–	–	> 10000	483
O=C1NC(NC2CCCSC2)=N/C1=C\c1ccc2ncsc2c1 (racemic)	> 10000	2490	37	107	–	124	246	7220	335
CC1(C)CCC(NC2=N/C(=C\c3ccc4ncsc4c3)C(=O)N2)CO1 (racemic)	> 10000	> 10000	102	357	–	260	574	4750	692
O=C1NC(NC2CCCCOC2)=N/C1=C\c1ccc2ncsc2c1 (racemic)	> 10000	3890	51	428	–	704	383	2770	495
CC(=O)OC12CC3CC(CC(NC4=N/C(=C\c5ccc6ncsc6c5)C(=O)N4)(C3)C1)C2	> 10000	4660	14	1660	19	145	597	2440	–
O=C1NC(N[C@H]2CN3CCC2CC3)=N/C1=C\c1ccc2ncsc2c1	–	> 10000	40	1750	11	–	–	> 10000	199
Cc1ccc(CNC2=N/C(=C\c3ccc4ncsc4c3)C(=O)N2)cc1C	> 10000	> 10000	31	1240	14	> 10000	–	> 10000	> 10000
O=C1NC(N[C@H]2c3ccccc3C[C@@H]2O)=N/C1=C\c1ccc2ncsc2c1	> 10000	> 10000	–	713	3	1540	2040	429	–
Cc1cnc(CNC2=N/C(=C\c3ccc4ncsc4c3)C(=O)N2)cn1	> 10000	> 10000	303	4140	32	3950	8330	9030	–
O=C1NC(Nc2ccccc2)=N/C1=C\c1ccc2c(c1)OCO2	–	–	–	1200	23	–	–	600	–
O=C1NC(NC2CCC(F)(F)C2)=N/C1=C\c1ccc2ncsc2c1 (racemic)	> 10000	5500	39	173	–	389	326	4690	299
CN1CCN(c2cnc(NC3=N/C(=C\c4ccc5ncsc5c4)C(=O)N3)nc2)CC1	> 10000	> 10000	997	5100	–	7480	> 10000	> 10000	450
O=C1NC(NCCCn2ccnc2)=N/C1=C\c1ccc2ncsc2c1	> 10000	> 10000	–	1790	12	592	–	6190	–
